Measurements: US9738591B2, “Antimicrobial compounds” (priority 2009, dated 2017)
Converted amounts (≈) assume the structure as drawn.

Columns and labels:
[1] = tested on: sheep erythrocytes; test: Haemolysis of sheep erythrocytes; format: cell-based; details: for Average (SD) % haemolysis (n = 2): 2% sheep erythrocytes, 37° C., 2 h
Procedure: As an indicator of toxicity to human cells, haemolysis experiments on sheep erythrocytes were undertaken with TSB007.
10 mg/ml stock solution of TSB007 was prepared in 100% DMSO. Master stock solutions of TSB007 (10 mg/ml) were made by dissolving 20 mg dehydrated compound in 2 ml 100% DMSO. They were stored in foil-covered glass bottles at −20° C. Master stocks stored in this way retained full antimicrobial activity for a minimum period of 6 weeks (results not shown).
Serial, 10-fold dilutions were performed in PBS to make solutions of 1000, 100, 10 and 1 mg/L of TSB007. In microcentrifuge tubes, 500 μl of each dilution was combined with 480 μl PBS and 20 μl washed sheep erythrocytes (100%) so that the final concentration of erythrocytes was 2% and the final concentrations of compound were 500, 50, 5 and 0.5 mg/L. Dilutions of DMSO without. TSB007 were prepared and tested as above to check for haemolysis due to DMSO. A 100% haemolysis control was prepared with 980 μl water and 20 μl erythrocyte suspension. A negative control was prepared with 980 μl PBS and 20 μl erythrocyte suspension. Dilutions and controls were prepared and tested in duplicate.
Tubes were incubated at 37° C. for 2 h on a rocker then centrifuged at 12 000 g for 5 mins. The OD540 of the supernatant was determined using 100 μl volumes transferred to a microtitre tray. % haemolysis was determined by blanking the OD against that of the negative control and presenting the resulting OD as a proportion of the OD of the positive control (blanked with water).

[2] = tested on: Klebsiella edwardsii NCTC 10896; test: Disk diffusion; format: cell-based; details: 10 mg/ml, 20 μl
[3] = tested on: Yersinia enterocolitica ATCC 9610; test: Disk diffusion; format: cell-based; details: 10 mg/ml, 20 μl
[4] = tested on: Enterococcus faecium ATCC 19434; test: Disk diffusion; format: cell-based; details: 10 mg/ml, 20 μl
[5] = tested on: S. epidermidis ATCC 12228; test: MIC and MBC by broth microdilution; format: cell-based; details: Staphylococcus epidermidis, ATCC12228, CA-MHB, two independent replicates
[6] = tested on: S. aureus and S. epidermidis; test: MIC by broth microdilution; format: cell-based; details: CA-MHB, read-out: lowest MICs
Procedure: The method used was based on CLSI protocols for broth microdilution testing of these species. As recommended by CLSI, inocula were prepared by direct colony suspension, and the media used were cation-adjusted Mueller Hinton broth (CA-MHB) for Staphylococcus spp. and CA-MHB containing 5% lysed horse blood (CA-MHB+LHB) for Streptococcus spp. Briefly, 24 h blood agar plate (BA) cultures of Staphylococcus aureus strains NCTC 6571, ATCC 29213, ATCC 33592 (MRSA) and NCTC 10442 (MRSA), Staphylococcus epidermidis ATCC 29971, Staphylococcus xylosus ATCC 29971, Streptococcus pneumoniae strains ATCC 49619 and ATCC 6305, and Streptococcus pyogenes strains NCTC 8191 and NCTC 8302 were used to prepare 0.5 McFarland suspensions in saline. Two 640 μg/ml working stocks of TSB007 were prepared from a fresh master stock, one in CA-MHB for testing against the Staphylococcus spp. and the other in CA-MHB+LHB for testing against Streptococcus spp. […]
The wells of two 96-well microtitre trays (one for Staphylococcus spp. and one for Streptococcus spp.) were filled with 100 μl of the appropriate broth, except for the first column. […] The microtitre trays were then incubated at 35° C. for 24 h before the MICs were read visually. Wells were further subcultured (10 μl drop onto BA then incubated at 35° C. for 24 h) and colonies subsequently counted to determine minimum bactericidal concentrations (MBCs). […]

[7] = tested on: Aeromonas hydrophila NCTC 8049/ATCC 7966; test: Disk diffusion; details: 10 mg/ml, 20 μl; repeat
[8] = tested on: Citrobacter freundii NCTC 9750/ATCC 8090; test: Disk diffusion; details: 10 mg/ml, 20 μl; repeat
[9] = tested on: Proteus mirabilis NCTC 10975; test: Disk diffusion; details: 10 mg/ml, 20 μl; repeat; value printed with '?'
[10] = tested on: Salmonella enterica subsp. enterica serovar Typhimurium ATCC 13311; test: Disk diffusion; details: 10 mg/ml, 20 μl; repeat
[11] = tested on: Bacillus cereus ATCC 13061; test: Disk diffusion; details: 10 mg/ml, 20 μl
[12] = tested on: Bacillus subtilis ATCC 6633; test: Disk diffusion; details: 10 mg/ml, 20 μl
[13] = tested on: Enterococcus faecalis NCTC 775; test: Disk diffusion; details: 10 mg/ml, 20 μl
[14] = tested on: Micrococcus luteus ATCC 10240; test: Disk diffusion; details: 10 mg/ml, 20 μl
[15] = tested on: Staphylococcus xylosus ATCC 29971; test: Disk diffusion; details: 10 mg/ml, 20 μl
[16] = tested on: Streptococcus pyogenes NCTC 8191; test: Disk diffusion; details: 10 mg/ml, 20 μl

With `O=C(O)c1ccc(/C=C/c2cc(/C=C/c3ccc(C(=O)O)cc3)cc(/C=C/c3ccc(C(=O)O)cc3)c2)cc1` [TSB007] the “Average (SD) % haemolysis (n = 2)” value ([1]; 0.5 mg/L) was −2.316 (0.695) %, the “Average (SD) % haemolysis (n = 2)” value ([1]; 5 mg/L) was 2.175 (0.099) % and the “Average (SD) % haemolysis (n = 2)” value ([1]; 50 mg/L) was 2.316 (0.099) %. For the same compound, the haemolytic activity ([1]; 0.5-500 mg/L) was “very low”, the “Average (SD) % haemolysis (n = 2)” value ([1]; 500 mg/L) was 5.053 (0.595) % and the “Zone diameters, Repeat Results” value [2] was 9 trim. For the same compound, the “Zone diameters, 24 h TSB007” value [3] was 7 trim, the “Zone diameters, 24 h TSB007” value ([4]; 24 h) was 11 trim and the “Zone diameters, 48 h TSB007” value ([4]; 48 h) was 10 trim. It also gave an MIC ([5]; 35° C., 24 h) of 2 to 4 mg/L (≈ 3.87 to 7.74 µM), an MBC [5] greater than 32 mg/L and an MIC [6] of 4 mg/L (≈ 7.74 µM). The “Zone diameters, Repeat Results” value [7] was 8 trim, the “Zone diameters, Repeat Results” value [8] was 9 trim and the “Zone diameters, Repeat Results” value [9] was 9? trim. For the same compound, the “Zone diameters, Repeat Results” value [10] was 11 trim, the “Zone diameters, 24 h TSB007” value ([11]; 24 h) was 10 trim and the “Zone diameters, 48 h TSB007” value ([11]; 48 h) was 9 trim. For the same compound, the “Zone diameters, Repeat Results” value ([11]; repeat) was 9 trim, the “Zone diameters, 24 h TSB007” value ([12]; 24 h) was 8 trim and the “Zone diameters, 48 h TSB007” value ([12]; 48 h) was 8 trim. The “Zone diameters, 24 h TSB007” value ([13]; 24 h) was 10 trim, the “Zone diameters, 48 h TSB007” value ([13]; 48 h) was 10 trim and the “Zone diameters, Repeat Results” value ([13]; repeat) was 8 trim. For the same compound, the “Zone diameters, 24 h TSB007” value ([14]; 24 h) was 26 trim, the “Zone diameters, 48 h TSB007” value ([14]; 48 h) was 26 trim and the “Zone diameters, Repeat Results” value ([14]; repeat) was 32 trim. For the same compound, the “Zone diameters, 24 h TSB007” value ([15]; 24 h) was 17 trim, the “Zone diameters, Repeat Results” value ([15]; repeat) was 18 trim and the “Zone diameters, 24 h TSB007” value ([16]; 24 h, Mueller Hinton + Blood & Incubated in 5% CO2) was 14 trim. The “Zone diameters, 48 h TSB007” value ([16]; 48 h, Mueller Hinton + Blood & Incubated in 5% CO2) was 14 trim and the “Zone diameters, Repeat Results” value ([16]; repeat) was 17 trim.
